Calls of active or inactive are those of the source.
Tests used:
[1] = test system: Candida albicans; assay: growth inhibition of resistant C. albicans, dose response, CaCi-8 strain, fluconazole, dry powder, set 4 (AID 488950); format: functional, organism-based
[2] = test system: Candida albicans; assay: fluconazole resistance reversal in C. albicans, dose response, CaCi-2 strain, Alamar Blue, dry powder, set 4 (AID 488943); format: functional, organism-based
[3] = biological target: T1, Sentrin-specific protease 8 (Homo sapiens, UniProt Q96LD8); assay: SENP8 protease inhibitors, SAR follow-up, biochemical, luminescence (AID 504501); format: functional
T1 sequence (Q96LD8 whole entry): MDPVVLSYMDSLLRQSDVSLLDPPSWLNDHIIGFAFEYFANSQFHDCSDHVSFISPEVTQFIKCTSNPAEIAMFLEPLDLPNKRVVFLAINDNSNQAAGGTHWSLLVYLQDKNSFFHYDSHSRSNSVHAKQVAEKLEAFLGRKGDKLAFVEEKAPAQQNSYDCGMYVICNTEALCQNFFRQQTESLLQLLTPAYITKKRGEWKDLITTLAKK

[4] = biological target: T2, Caspase-3 (Homo sapiens, UniProt P42574); assay: SAR Analysis of small molecule inhibitors of Sentrin-specific proteases (SENPs) using a Caspase-3 Selectivity assay. [Related pubchem assays (depositor defined):AID2540, AID2599, AID434973, AID489001]; format: functional
T2 sequence (P42574 whole entry): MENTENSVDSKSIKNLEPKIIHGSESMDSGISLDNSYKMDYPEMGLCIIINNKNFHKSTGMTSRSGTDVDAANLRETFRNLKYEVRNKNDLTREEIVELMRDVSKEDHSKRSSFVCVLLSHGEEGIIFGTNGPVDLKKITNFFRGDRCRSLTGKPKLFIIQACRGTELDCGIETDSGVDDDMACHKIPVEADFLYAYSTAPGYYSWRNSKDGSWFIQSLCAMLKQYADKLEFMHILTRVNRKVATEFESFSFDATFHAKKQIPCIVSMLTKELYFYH

[5] = biological target: T3, Sentrin-specific protease 6 (Homo sapiens, UniProt Q9GZR1); assay: SAR Analysis of small molecule inhibitors of Sentrin-specific protease 6 (SENP6) using a Luminescent assay. [Related pubchem assays (depositor defined):AID2582, AID2599]; format: functional
T3 sequence (Q9GZR1 whole entry): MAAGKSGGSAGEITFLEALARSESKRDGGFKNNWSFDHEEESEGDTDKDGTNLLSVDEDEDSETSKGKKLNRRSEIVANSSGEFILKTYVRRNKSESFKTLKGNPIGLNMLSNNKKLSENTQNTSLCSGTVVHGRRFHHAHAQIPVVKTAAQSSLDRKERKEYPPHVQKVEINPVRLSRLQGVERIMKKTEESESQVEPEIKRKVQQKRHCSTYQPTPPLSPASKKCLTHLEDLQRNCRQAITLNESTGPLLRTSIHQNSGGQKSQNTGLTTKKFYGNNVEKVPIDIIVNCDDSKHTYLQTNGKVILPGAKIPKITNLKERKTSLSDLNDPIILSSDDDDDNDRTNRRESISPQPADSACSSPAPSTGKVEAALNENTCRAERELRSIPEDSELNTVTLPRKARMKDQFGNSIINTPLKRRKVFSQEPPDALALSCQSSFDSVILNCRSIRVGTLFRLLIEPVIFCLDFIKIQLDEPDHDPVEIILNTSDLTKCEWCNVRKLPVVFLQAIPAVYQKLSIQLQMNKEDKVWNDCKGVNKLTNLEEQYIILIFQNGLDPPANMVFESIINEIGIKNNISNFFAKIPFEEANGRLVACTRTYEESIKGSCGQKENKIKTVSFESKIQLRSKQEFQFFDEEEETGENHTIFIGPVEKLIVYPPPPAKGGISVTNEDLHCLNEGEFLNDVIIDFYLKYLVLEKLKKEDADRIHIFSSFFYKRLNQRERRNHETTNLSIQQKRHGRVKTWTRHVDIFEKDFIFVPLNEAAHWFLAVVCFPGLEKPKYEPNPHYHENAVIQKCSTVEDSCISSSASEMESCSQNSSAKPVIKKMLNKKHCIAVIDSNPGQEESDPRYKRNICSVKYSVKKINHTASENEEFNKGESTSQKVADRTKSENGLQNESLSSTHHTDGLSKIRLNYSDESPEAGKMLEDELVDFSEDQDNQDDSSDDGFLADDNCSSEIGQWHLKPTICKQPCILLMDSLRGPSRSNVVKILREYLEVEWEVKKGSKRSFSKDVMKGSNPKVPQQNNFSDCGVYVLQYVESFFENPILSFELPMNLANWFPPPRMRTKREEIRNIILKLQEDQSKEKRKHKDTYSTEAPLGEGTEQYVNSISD

[6] = biological target: T4, Sentrin-specific protease 7 (Homo sapiens, UniProt Q9BQF6); assay: SENP7 protease inhibitors, SAR follow-up, biochemical, luminescence (AID 504497); format: functional
T4 sequence (Q9BQF6 whole entry): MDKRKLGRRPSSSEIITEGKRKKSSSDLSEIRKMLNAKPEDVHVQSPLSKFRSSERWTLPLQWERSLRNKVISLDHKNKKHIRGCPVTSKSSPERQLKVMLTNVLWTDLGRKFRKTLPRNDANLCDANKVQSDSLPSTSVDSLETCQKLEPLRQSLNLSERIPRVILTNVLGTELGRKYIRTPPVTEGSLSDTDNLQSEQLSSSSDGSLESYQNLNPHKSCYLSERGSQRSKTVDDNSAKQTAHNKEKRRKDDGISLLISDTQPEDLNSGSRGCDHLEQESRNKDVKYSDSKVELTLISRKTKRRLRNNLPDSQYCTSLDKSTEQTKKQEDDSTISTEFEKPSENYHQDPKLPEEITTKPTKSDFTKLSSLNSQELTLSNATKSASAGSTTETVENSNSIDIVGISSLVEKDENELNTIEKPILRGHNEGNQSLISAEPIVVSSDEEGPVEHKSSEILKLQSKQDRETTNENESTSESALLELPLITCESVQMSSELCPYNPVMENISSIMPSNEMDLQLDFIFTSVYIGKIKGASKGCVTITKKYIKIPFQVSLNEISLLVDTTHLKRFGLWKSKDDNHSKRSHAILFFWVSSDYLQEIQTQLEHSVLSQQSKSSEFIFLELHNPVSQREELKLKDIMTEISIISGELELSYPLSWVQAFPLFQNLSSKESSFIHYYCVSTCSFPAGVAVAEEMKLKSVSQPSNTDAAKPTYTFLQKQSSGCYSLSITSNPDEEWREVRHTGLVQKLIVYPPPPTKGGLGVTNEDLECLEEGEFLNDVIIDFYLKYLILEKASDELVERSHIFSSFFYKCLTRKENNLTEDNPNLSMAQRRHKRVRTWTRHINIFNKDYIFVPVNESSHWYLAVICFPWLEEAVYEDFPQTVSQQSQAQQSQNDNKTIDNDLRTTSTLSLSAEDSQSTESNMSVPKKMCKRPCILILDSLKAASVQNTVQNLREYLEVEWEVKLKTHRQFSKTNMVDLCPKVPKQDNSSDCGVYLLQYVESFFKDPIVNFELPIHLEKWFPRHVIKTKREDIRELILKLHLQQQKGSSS

[7] = test system: Streptococcus sp. 'group A'; assay: growth inhibition of control SK(-) GAS strain, dose response, counter-screen for streptokinase expression inhibitor project, luminescence, kanamycin, BacTiterGlo, confirmation (AID 1900); format: functional, organism-based
[8] = biological target: T5, Streptokinase A (Streptococcus pyogenes serotype M1, UniProt P10520); assay: S. pyogenes streptokinase expression inhibitors, potency, dose response, plasminogen activation absorbance, OD405 (AID 1914); format: functional, Streptococcus pyogenes M1 GAS;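 also: secreted streptokinase activity via plasminogen activation per viability signal from cell pellet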
T5 sequence (P10520 whole entry): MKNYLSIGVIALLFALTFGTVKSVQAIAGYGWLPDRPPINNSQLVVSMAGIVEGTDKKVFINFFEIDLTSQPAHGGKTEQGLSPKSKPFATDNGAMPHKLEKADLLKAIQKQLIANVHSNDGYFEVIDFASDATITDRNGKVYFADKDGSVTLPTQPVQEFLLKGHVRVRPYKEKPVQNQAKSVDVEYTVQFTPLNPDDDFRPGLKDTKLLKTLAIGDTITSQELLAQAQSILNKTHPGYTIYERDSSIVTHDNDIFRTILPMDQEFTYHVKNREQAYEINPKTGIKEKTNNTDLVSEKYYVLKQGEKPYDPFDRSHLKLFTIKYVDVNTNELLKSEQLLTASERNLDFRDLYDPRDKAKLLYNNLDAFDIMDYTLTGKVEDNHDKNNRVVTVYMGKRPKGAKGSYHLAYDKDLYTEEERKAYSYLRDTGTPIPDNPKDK

[9] = test system: Streptococcus; assay: Group A Streptococcus viability loss, dose response, counter-screen for streptokinase expression inhibitor project, luminescence, BacTiterGlo (AID 1915); format: functional, organism-based;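 also: potency for reduction of bacterial viability or growth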
[10] = biological target: T6, Cysteine protease ATG4B (Homo sapiens, UniProt Q9Y4P1); format: functional;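 also: Fluorescence-based dose-response confirmation assay measuring inhibition of ATG4B activity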
T6 sequence (Q9Y4P1 whole entry): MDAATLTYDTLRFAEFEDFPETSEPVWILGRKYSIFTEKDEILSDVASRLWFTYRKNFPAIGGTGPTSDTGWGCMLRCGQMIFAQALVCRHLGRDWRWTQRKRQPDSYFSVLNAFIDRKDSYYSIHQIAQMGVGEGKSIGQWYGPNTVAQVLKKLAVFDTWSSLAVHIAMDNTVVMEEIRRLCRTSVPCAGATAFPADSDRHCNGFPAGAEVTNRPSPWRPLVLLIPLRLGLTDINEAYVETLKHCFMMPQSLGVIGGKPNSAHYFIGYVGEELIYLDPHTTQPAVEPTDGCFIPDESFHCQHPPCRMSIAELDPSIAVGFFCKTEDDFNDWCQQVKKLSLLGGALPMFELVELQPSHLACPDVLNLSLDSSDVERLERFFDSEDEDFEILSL

[11] = biological target: Phospholipase A2 (Homo sapiens, UniProt P04054); format: functional;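 also: confirmatory dose-response counterscreen on phospholipase A2, testing hits that came from an ultra-high-throughput screen for ATG4B inhibitors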
Phospholipase A2, sequence (P04054 whole entry, the tested form may be a part): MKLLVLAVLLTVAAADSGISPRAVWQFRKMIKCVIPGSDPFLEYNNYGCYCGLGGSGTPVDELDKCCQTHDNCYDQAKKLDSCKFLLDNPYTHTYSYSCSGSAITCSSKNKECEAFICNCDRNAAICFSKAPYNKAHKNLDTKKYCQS

[12] = biological target: T7, Fatty acid synthase (Homo sapiens, UniProt P49327); assay: FAS thioesterase domain inhibitors, dose response, biochemical, endpoint fluorescence intensity, uHTS hits (AID 624327); format: functional;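 also: fluorescence from hydrolysis of an O-methyl fluorescein acyl ester substrate by the enzyme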
T7 sequence (P49327 whole entry, the tested form may be a part): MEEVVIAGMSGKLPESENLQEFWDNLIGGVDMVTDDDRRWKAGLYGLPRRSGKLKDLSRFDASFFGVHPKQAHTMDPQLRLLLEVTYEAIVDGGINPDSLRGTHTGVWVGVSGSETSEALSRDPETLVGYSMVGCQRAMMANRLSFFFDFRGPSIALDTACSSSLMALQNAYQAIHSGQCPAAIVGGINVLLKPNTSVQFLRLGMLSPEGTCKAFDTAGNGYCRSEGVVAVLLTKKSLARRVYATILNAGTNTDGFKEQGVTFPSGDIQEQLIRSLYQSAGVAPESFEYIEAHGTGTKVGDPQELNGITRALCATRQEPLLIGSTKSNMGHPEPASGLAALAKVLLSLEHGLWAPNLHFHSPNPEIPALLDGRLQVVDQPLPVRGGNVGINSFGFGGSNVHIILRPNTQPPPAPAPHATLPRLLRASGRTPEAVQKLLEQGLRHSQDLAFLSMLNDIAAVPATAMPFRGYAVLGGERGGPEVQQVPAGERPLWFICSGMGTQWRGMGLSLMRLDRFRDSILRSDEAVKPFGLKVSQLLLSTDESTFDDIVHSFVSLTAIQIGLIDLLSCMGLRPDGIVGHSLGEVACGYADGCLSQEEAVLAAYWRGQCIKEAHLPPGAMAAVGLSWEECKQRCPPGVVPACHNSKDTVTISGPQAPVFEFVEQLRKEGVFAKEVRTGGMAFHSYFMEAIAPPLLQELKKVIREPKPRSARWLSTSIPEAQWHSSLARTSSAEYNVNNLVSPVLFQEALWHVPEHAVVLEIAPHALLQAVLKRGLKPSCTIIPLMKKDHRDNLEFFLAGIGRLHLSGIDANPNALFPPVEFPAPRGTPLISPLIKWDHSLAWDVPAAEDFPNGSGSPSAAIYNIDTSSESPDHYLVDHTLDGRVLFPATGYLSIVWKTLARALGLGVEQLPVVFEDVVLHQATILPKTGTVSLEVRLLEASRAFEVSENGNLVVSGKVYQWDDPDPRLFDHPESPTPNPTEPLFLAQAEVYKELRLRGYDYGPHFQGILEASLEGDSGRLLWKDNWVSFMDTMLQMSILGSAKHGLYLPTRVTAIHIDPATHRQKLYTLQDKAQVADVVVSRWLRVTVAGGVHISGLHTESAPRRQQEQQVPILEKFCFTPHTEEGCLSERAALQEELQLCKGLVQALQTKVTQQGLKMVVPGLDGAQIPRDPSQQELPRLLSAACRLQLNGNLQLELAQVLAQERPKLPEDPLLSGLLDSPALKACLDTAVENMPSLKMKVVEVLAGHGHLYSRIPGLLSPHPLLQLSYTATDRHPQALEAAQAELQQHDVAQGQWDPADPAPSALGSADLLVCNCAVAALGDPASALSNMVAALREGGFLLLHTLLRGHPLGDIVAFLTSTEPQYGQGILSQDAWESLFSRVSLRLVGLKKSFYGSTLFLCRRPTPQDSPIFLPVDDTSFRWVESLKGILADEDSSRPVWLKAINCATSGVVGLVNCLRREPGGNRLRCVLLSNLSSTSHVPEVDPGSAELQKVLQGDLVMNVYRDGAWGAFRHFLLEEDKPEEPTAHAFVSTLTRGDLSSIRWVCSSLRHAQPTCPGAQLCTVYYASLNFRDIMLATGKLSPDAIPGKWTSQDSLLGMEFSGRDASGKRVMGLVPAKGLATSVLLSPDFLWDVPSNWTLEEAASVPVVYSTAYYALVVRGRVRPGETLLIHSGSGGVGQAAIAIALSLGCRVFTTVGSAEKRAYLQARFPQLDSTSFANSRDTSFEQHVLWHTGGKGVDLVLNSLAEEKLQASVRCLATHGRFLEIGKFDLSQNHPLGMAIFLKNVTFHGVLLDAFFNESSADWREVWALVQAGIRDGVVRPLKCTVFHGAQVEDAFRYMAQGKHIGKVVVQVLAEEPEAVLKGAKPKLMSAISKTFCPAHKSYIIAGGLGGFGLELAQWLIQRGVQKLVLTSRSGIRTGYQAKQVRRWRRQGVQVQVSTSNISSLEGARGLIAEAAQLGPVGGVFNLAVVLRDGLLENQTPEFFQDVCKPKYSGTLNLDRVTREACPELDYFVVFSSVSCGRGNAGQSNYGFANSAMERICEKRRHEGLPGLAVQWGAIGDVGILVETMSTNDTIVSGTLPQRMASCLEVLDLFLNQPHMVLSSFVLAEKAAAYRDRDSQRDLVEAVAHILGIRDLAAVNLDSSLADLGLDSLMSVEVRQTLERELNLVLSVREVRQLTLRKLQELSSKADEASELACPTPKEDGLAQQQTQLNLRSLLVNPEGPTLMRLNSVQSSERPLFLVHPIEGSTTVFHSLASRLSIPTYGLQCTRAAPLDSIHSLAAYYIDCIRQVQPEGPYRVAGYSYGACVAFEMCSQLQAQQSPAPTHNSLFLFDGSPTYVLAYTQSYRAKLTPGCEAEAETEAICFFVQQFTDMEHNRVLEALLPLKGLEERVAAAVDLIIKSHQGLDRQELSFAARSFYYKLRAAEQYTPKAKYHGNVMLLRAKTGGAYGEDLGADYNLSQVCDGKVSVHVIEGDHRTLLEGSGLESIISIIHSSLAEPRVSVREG

[13] = biological target: T7, Fatty acid synthase; assay: FAS thioesterase domain inhibitors, dose response, biochemical, kinetic fluorescence intensity (AID 624326); format: functional;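 also: rate of fluorescence rise from hydrolysis of a fluorogenic O-methyl fluorescein ester substrate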

## COc1ccc(OC)c2c(C)cc(N3CCN(C(=O)c4ccc(Cl)cc4)CC3)nc12
[1]
  AC50: 8.32 µM (active)
[2]
  AC50: 9.36 µM (active)

## COC(=O)c1ccc(NC(=O)C(=O)c2c[nH]c3ccccc23)cc1
[3]
  IC50: > 99 µM (inactive)
[4]
  IC50: > 99 µM (inactive)
[5]
  IC50: > 99 µM (inactive)
[6]
  IC50: > 99 µM (inactive)

## O=C1NC(=O)/C(=C\c2ccccc2OCc2ccccc2)S1
[7]
  EC50: 16.4 µM (active)
[8]
  EC50: 37.6 µM (active)
[9]
  EC50: 88.8 µM (active)
[10]
  IC50: 10.7 µM (active)
[11]
  IC50: 8.29 µM (active)

## O=C(O)COc1ccccc1C=NNc1ccc([N+](=O)[O-])cc1S(=O)(=O)Nc1ccc(Cl)cc1
[10]
  IC50: 10.6 µM (active)
[11]
  IC50: 12.2 µM (active)
[12]
  IC50: 10.8 µM (active)
[13]
  IC50: 12.5 µM (active)

## O=C(Nc1ccccc1Cl)c1ccc(OCc2ccccc2)cc1
[3]
  IC50: > 99 µM (inactive)
[4]
  IC50: > 99 µM (inactive)
[5]
  IC50: > 99 µM (inactive)
[6]
  IC50: > 99 µM (inactive)

## COc1cc(C(=O)Nc2ccccc2Cl)ccc1OCc1ccc(Cl)cc1
[3]
  IC50: > 99 µM (inactive)
[4]
  IC50: > 99 µM (inactive)
[5]
  IC50: > 99 µM (inactive)
[6]
  IC50: > 99 µM (inactive)

## O=C(O/N=C1/CCSc2ccccc21)c1ccccc1
[10]
  IC50: 16 µM (active)
[11]
  IC50: 13.2 µM (active)

From ChEMBL document CHEMBL1201862, “PubChem BioAssay data set” (2004)
